Assay results taken from patent publication US4772587A, “Dipeptide derivative of fatty acid” (Suntory Limited, priority 1985, dated 1988).
Residues, ends and D or L forms follow the SMILES beside them. *: point of attachment. Oleoyl = CCCCCCCC/C=C\CCCCCCCC(=O)*

What was measured:
[1] = Solubility in organic solvents; type: physicochemical
Text: All the compouds in Table 1 are oils which are soluble in CCl4, ether, CHCl3, CH2 Cl2, AcOEt and MeOH.

prolyl endopeptidase = prolyl endopeptidase (Elizabethkingia meningoseptica, UniProt P27028); assay: Measurement of anti-prolyl endopeptidase activity (decomposition of Z-glycyl-proline-β-naphthylamide); type: biochemical; conditions: substrate Z-glycyl-proline-β-naphthylamide, phosphate buffer pH 7.0
Sequence of prolyl endopeptidase (P27028 21-705): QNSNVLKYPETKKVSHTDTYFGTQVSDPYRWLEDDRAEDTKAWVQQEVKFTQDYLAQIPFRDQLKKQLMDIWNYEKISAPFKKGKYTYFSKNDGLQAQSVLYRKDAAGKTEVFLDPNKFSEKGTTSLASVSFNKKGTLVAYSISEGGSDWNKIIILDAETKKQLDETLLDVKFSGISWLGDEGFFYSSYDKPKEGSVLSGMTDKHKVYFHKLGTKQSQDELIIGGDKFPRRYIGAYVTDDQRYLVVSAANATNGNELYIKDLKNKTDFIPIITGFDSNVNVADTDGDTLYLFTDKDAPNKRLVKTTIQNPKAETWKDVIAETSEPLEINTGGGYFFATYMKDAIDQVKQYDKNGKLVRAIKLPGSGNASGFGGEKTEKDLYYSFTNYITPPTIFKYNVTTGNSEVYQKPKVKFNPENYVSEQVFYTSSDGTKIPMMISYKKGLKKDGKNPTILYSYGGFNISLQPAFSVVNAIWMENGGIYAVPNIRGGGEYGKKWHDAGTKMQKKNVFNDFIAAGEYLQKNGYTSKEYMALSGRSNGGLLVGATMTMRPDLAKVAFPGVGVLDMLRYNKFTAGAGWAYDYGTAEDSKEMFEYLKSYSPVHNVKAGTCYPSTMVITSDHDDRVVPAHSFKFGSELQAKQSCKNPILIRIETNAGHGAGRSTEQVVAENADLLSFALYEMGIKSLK
Method: The method of Yoshimoto and Tsuru (T. Yoshimoto and D. Tsuru, Agr. Biol. Chem. 42, 2417, 1978) was used to measure the anti-prolyl endopeptidase activities of several compounds of the present invention. A mixture of 0.0025M Z-glycyl-proline-β-naphthylamide (0.25 ml), 0.1M phosphate buffer (pH, 7.0; 0.99 ml) and a solution of a particular anti-prolyl endopeptidase compound (0.01 ml) was incubated in a test tube at 37° C. for 3 minutes. Thereafter, 0.1 ml of a solution of prolyl endopeptidase (0.2 U/ml) was added and the mixture was heated at 35° C. for 10 minutes. After the reaction, 2.0 ml of Triton X-100 in 1M acetate buffer (pH, 4.0) was added to the reaction mixture until the final concentration of the surfactant was 10%. The mixture was left at room temperature for 15 minutes and the absorbance (a) at 410 nm was measured.
A sample for blind test was prepared by using the buffer instead of the anti-prolyl endopeptidase compound and its absorbance (b) was also measured. The percent inhibition of prolyl endopeptidase was calculated by the formula: ((b-a)/b)×100, and the amount of a specific compound to achieve 50% inhibition (IC50) was determined.

[2] = test system: experimental amnesia caused in rats by scopolamine; assay: Preventive effect against experimental amnesia caused in rats by scopolamine (passive avoidance learning); type: in vivo, Wister male rats; conditions: administered orally (so in the source) in an amount of 0.025 mg/kg
ddY strain male mice = assay: Anti-hypoxia action (survival time in desiccator evacuated to 180 mmHg); type: in vivo; conditions: for No. of survival/used (Drug): 30 minutes before evacuation to 180 mmHg
Method: The compounds of the present invention were checked for their anti-hypoxia action in ddY strain male mice (body weight: 25-34 g). Each of the treated groups consisted of 7 to 10 mice. Test samples were prepared by adding 2 to 3 drops of Tween 80® to physiological saline and suspending the respective compounds in the saline. The so conditioned test samples were administered (0.1 m 10 g) to each of the mice used.
At 30 minutes after the administration, each of the mice was placed in a desiccator having a volume of 1 l, and the desiccator was evacuated to 180 mmHg using a vacuum pump. The period of time from the start of the evacuation until the arrest of breathing was defined as Survival Time (minute).
When a mouse survived for 15 minutes or more, the survival time was recorded as being 15 minutes. Student's t-test was employed for significance analysis.

[3] = test system: experimental amnesia caused in rats by scopolamine; assay: Preventive effect against experimental amnesia caused in rats by scopolamine (passive avoidance learning); type: in vivo, Wister male rats; conditions: sample 25 μg/kg i.p.; scopolamine 3 mg/kg i.p. after learning
Method: Several of the anti-prolyl endopeptidase compounds of the present invention were checked for their ability to prevent the inhibition of long-term memory fixation by scopolamine. Solutions of physiological saline (0.3 ml) that contained selected compounds of the present inventions in varying amounts ([…], 0.25 mg, 0.1 mg, 0.025 mg and 0.010 mg/kg) were administered intraperitoneally once a day to Wister male rats (100-120 g). One hour after the administration, electric shocks (1.7 mA) were applied to the rats so that they would acquire passive avoidance learning. Immediately thereafter, scopolamine was administered intraperitoneally to each rat in an amount of 3 mg per kg of body weight.
The result of the test was assessed both 24 hours and 48 hours after the administration of scopolamine. The number of amnesic rats and of sound rats was counted for each of the control group (rats to which the test compounds had not been administered but to which only scopolamine and physiological saline had been administered intraperitoneally and the treated group (rats to which both the test compound and scopolamine had been administered). The results are shown in Table 3.

Structure (SMILES)	solubility in benzene [1]	IC50 (amount of compound to achieve 50% inhibition) (prolyl endopeptidase) [ng/test tube]	anti-amnesic action (in words) [2]	Survival time Ratio (Drug/Control) (ddY strain male mice; 1 mg/kg i.p.)	No. of survival/used (Drug) (ddY strain male mice; 1 mg/kg i.p.)	Survival time (Mean ± S.E.), Drug (ddY strain male mice; 1 mg/kg i.p., p < 0.05 vs control) [mini]	Survival time Ratio (Drug/Control) (ddY strain male mice; 10 mg/kg i.p.)	No. of survival/used (Drug) (ddY strain male mice; 10 mg/kg i.p.)	Survival time (Mean ± S.E.), Drug (ddY strain male mice; 10 mg/kg i.p., p < 0.1 vs control) [mini]	Avoidance time 24 hrs. later [3] [s]	Avoidance time 48 hrs. later [3] [s]	No. of amnesic rats/No. of rats tested [3]	Percentage amnesia [3] [%]
CCCCCCCC/C=C\CCCCCCCC(=O)NC(Cc1ccccc1)C(=O)N1CCCC1C(=O)OC (stereo not drawn) [SUAM 1194, oleoyl-Phe-Pro-OMe] (Oleoyl-Phe-Pro-OMe; configuration not given here)	soluble in benzene	–	–	–	–	–	–	–	–	–	–	–	–
CCCCCCCC/C=C\CCCCCCCC(=O)N[C@@H](Cc1ccccc1)C(=O)N1CCC[C@H]1C=O [SUAM 1212, oleoyl-Phe-Pro-CHO] (Oleoyl-Phe-Pro-aldehyde)	–	0.4	strong anti-amnesic action	1.27	0/7	2.94 ± 0.27	1.28	0/7	2.89	300	285	0/10	0
